Measurements as given in patent US20250199004A1, “METHODS OF EVALUATING TREATMENT OUTCOME IN HIGH GRADE SEROUS OVARIAN CANCER” (THE REGENTS OF THE UNIVERSITY OF COLORADO, A BODY CORPORATE, priority 2018, published 2025).

What was measured:
[1] = test system: TMEFF1 expression in OVCAR4 cells; assay: TMEFF1 (CBX2 target gene) expression by qPCR; format: cell-based, human; conditions: qPCR after treatment of OVCAR4 cells
Experimental: Ten candidate inhibitors were evaluated based on their ability to inhibit HGSOC cell viability. Dose response assays of all 10 inhibitors were conducted in OVCAR4, PEO1, and COV504 HGSOC cell lines to determine half inhibitory concentration (IC50) (FIG. 12 Panel A). We explored ability of these compounds to downregulate a CBX2 target gene, transmembrane protein with EGF-like and two follistatine-like domains 1 (TMEFF1) (FIG. 12 Panel B).
RNA was isolated using RNAeasy Plus Mini Kit (Qiagen, Hilden Germany) according to the manufacturer's protocol. NanoDrop spectrophotometry was used to measure concentration of extracted RNA. Luna Universal One-step RT qPCR kit (New England BioLabs, Ipswich, MA) was used on BioRad CFX96 (Bio-Rad, Hercules, CA). HPRT or GAPDH were used as internal control as stated in figure legend.

[2] = test system: Histone H2A Lys119 ubiquitination (H2AK119ub); assay: Western blot for H2AK119ub as marker of CBX2/PRC1 activity; format: cell-based, human
Experimental: CBX2 is a known subunit of PRC1, which is critical for normal development and functions as a transcriptional repressor. PRC1 is understood to have histone ubiquitin ligase activity, specifically targeting Histone H2A […] ubiquitination ([…]). In order to evaluate the impact of treatment with alisertib on the broader PRC1 complex, […] was used as a surrogate marker of CBX2 activity in the PRC1. OVCAR4 (***confirm) cells were treated with IC50 doses of each of the 10 candidate inhibitors, a Western blot for […] was compared to a beta-actin control (FIG. 12 Panel C). […] Finally, PRC1 target […] was used to evaluate the impact of treatment with alisertib on the broader PRC1 complex. OVCAR4 and PEO1 cells were treated with increasing doses of aliserib and western blots were performed to evaluate […] as a marker of PRC1 activity (FIG. 14 Panel F). Cell lysis was performed using radioimmunoprecipitation assay (RIPA) buffer (150 mM sodium chloride, Triton X-100, 0.5% sodium deoxycholate, 0.1% SDS [sodium dodecyl sulfate], 50 mM Tris, pH 8.0) supplemented with complete EDTA-free protease inhibitor cocktail (Roche), as well as NaF and NaV. Protein was quantified using bicinchoninic acid (BCA) protein assay (Thermo Fisher Scientific, Waltham, MA) and spectrophotometry. An 8% SDS polyacrylamide gel resolving gel was created with a 4% stacking gel. […]

[3] = test system: OVCAR4 cells; assay: Proliferation assay, parental vs CRISPR CBX2 knock out cells; format: cell-based, human; conditions: OVCAR4 CRISPR/Cas9 CBX2 KO vs parental
Experimental: Examples 8-12: All drugs were suspended in DMSO at the concentration of 50 mM and aliquoted and stored in -80 C. 1000 cells were seeded in 96 well plate a day prior. 10 fold dilution of drugs in the cultureing media supplemented with FBS and penicillin/Streptomycin was added and cells were cultured until the cells in the no-drug added wells became confluent (5-8 days). Cells were washed with PBS twice and fixed with fixation buffer (10% Methanol and 10% Acetic acid in PBS) followed by staining with Cristal Violet staining solution (0.4% Cristal Violet in 20% Ethanol). […] CBX2 CRISPR knocked-out OVCAR4 cells were created by the University of Colorado Functional Genomics Facility using the IDT Alt-R RNP system. ALT-R crRNA and ATL-R tracrRNA were suspended at 100 μmol/L in nuclease-free IDTE pH7.5. The same volumes of ALT-R crRNA and ATL-R tracrRNA were mixed to prepare gRNA complex at 50μmol/L, heated at 95° C. for 5 minutes, and then were cooled to room temperature. The RNP complex was prepared with 150 pmol of gRNA and 125 pmol of Alt-R Cas9-NLS in final volume of 5 μL in PBS. Cells were harvested in Necleofector solution SF with supplement (Lonza, Basel, Switzerland) at a concentration of 1×10^6 cells per 100 μL. The transfection mix was made with 100 μL of cell suspension, 2.5 μL each of RNP complex, and 0.6 μL of 100 μL of Alt-R Cas9 Electroporation enhancer. […]

[4] = test system: OVCAR4 cells; assay: Ultra low dilution analysis (ULDA) of stemness; format: cell-based, human
Experimental: An ultralow dilutional assay (ULDA) utilizing the OVCAR4 HGSOC cell line was used to evaluate the functional impact of four inhibitors. The number of spheroids were plotted against the IC50 dose of each agent (FIG. 13 Panel B). The more significant the decrease in spheroids formation capacity, the more significant the decrease in stemness associated with treatment. […] Cells were trypsinized and filtered with a 40-micron filter, creating a single cell suspension. Cells were plated in 96 wells ultra-low attachment plates (CORNING #3474 this is flat bottom, and CORNING #7007: used u bottom for COV504) in 200 ul CSC media (DMEM/F12, 1× B27, 4% FBS, 100 U/ml penicillin/streptomycin, 20 ng/ml human EGF, 20 ng/ml human FGF). After 3 days, 100 μl of medium was gently taken out, then added drugs to final IC50 concentration. The media with drug was replaced with half volume every 4-5 days and cultured for 3 weeks. […] After 4 hours spheroid existence and color were evaluated under the microscope (Incucyte). Observation of purple spheroids confirmed the presence of live cells and were scored as 1. If no spheroids appreciated, or if purple spheroids were not observed it was scored as 0. […] The stem cell frequency was calculated using ultra low limiting dilution analysis (PMID: 19567251).

[5] = test system: ID8 Trp53-/- Brca2-/- cells; assay: Syngeneic mouse model, CBX2 intact vs CBX2 knock down tumors; format: in vivo, C57BL/6J mice; conditions: 30 mg/kg PO, 28 days
Experimental: To further elucidate the dependence of alisertib on CBX2, an in vivo study was performed using a syngeneic mouse model with CBX2 intact compared to CBX2 knock down, undergoing treatment with alisertib. Measurements of mRNA expression confirmed that CBX2 knock down was effective (FIG. 15 Panel A). The mice were treated with vehicle control or 30 mg/kg alisertib for 28 days (FIG. 15 Panel B). Tumor-bearing mice were necropsied at the end of treatment and omental weight, number of dissemination sites, and total tumor weight were quantified (FIG. 15 Panels C-E, respectively). […] It can be concluded therefore, that the loss of CBX2 expression in an ovarian cancer model attenuates the anti-tumor response to alisertib. […] Tissue was also collected and processed for further analysis. […] In the second study, mice were treated with 30 mg/kg alisertib, PO, for 28 days, as described above. Due to the weight loss observed in the first study, we reduced treatment from 7 days per week to 5 days per week.

Compound: COc1cc(Nc2ncc3c(n2)-c2ccc(Cl)cc2C(c2c(F)cccc2OC)=NC3)ccc1C(=O)O [alisertib]
- TMEFF1 expression [1]: significantly inhibited
- H2AK119ub, surrogate marker of PRC1 activity ([2]; OVCAR4 and PEO1 cells, increasing doses): decreased in parallel with CBX2
- Histone H2A Lys119 ubiquitination ([2]; OVCAR4 cells, IC50 dose, vs beta-actin control): decreased
- IC50 in CBX2 KO cells compared to the parental cells [3]: ten times higher
- impact on stemness through ULDA on knocking out CBX2 ([4]; OVCAR4 CBX2 KO vs parental): attenuated impact
- stem cell frequency ([4]; treatment at IC50): decreased
- number of dissemination sites: anti-tumor response in CBX2 knock down mice vs CBX2 intact mice [5]: significant attenuation
- omental weight: anti-tumor response in CBX2 knock down mice vs CBX2 intact mice [5]: significant attenuation
- total tumor weight: anti-tumor response in CBX2 knock down mice vs CBX2 intact mice [5]: significant attenuation
